Where two headings read alike, the source gives them in different places.
Assays:
hTAS2R39 [1] = target: T1, hTAS2R39 (Homo sapiens, UniProt P59534); assay: Calcium assay of hTAS2R39 activation/inhibition in HEK293 T-Rex Flp-In cells; type: cell-based; details: for reduction of ECG response on hTAS2R39 (screening for inhibition): simultaneous application of 200 μM ECG and 250 μM flavanone, inhibition when response ratio <1; for EC80 on hTAS2R39: agonist dose-response curve
T1 construct: first 45 amino acids of rat somatostatin receptor type 3 (sst3 membrane-targeting tag) (N); expressed in transfected cells; host or cells: HEK293 T-Rex Flp-In cells stably expressing Gα16-gust44; receptor in pcDNA5/FRT, induced with doxycycline
T1 sequence (P59534 1-338): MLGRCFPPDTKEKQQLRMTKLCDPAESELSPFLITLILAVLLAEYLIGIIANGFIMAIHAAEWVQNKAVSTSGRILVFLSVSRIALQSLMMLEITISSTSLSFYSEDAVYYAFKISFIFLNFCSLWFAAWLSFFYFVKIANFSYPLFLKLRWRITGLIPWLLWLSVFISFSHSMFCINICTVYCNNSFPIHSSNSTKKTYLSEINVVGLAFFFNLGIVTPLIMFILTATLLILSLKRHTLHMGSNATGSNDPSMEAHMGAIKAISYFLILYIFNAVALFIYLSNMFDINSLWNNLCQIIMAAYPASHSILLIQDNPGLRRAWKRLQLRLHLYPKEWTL

hTAS2R14 = target: T2, hTAS2R14 (Homo sapiens, UniProt Q9NYV8); assay: Calcium assay of hTAS2R14 activation/inhibition in HEK293 T-Rex Flp-In cells; type: cell-based; details: for IC50, Simultaneous / Threshold, Simultaneous: simultaneous addition, n.b. = no blocking; for EC80 on hTAS2R14: agonist concentration used in inhibition tests
T2 construct: first 45 amino acids of rat somatostatin receptor type 3 (sst3 membrane-targeting tag) (N); expressed in transfected cells; host or cells: HEK293 T-Rex Flp-In cells stably expressing Gα16-gust44; induced with doxycycline
T2 sequence (Q9NYV8 1-317): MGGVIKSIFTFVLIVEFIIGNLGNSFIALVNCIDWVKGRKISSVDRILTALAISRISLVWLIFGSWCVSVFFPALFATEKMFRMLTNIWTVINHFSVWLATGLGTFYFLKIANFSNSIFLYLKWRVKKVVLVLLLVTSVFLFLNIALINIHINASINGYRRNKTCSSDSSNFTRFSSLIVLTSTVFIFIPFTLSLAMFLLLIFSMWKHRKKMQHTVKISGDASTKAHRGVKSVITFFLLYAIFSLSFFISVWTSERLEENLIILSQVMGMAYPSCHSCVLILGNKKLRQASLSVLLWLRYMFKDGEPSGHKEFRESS
Text: For functional expression of the human bitter taste receptor hTAS2R39, HEK293 T-Rex Flp-In cells (Invitrogen, San Diego, CA, USA) were used, stably expressing the chimeric G-protein α-subunit Gα16-gust44 (cloned into pcDNA4 (Invitrogen)) and the human bitter receptor genes for hTAS2R39 (cloned into pcDNA5/FRT (Invitrogen)). The bitter receptor gene contained a DNA sequence encoding the first 45 amino acids of rat somatostatin receptor type 3 at its 5′ end (the receptor expression was achieved according to [18] with exception of the HSV-tag), in order to improve membrane targeting of the receptor protein. The same procedure was applied for stable expression of hTAS2R14. Cells were maintained in Dulbecco's Modified Eagle's Medium (DMEM) and 10% (v/v) tetracycline-free FBS (both Lonza, Verviers, Belgium) supplemented with blasticidin (5 μg/mL), geneticin (400 μg/mL) and hygromycin (100 μg/mL) (all from Invitrogen). Cells were grown and maintained at 37 °C and 5% (v/v) CO2.
Cells were seeded into poly-L-lysine-coated (Sigma-Aldrich) 96-well plates (black wall, clear bottom, Greiner bio-one, Frickenhausen, Germany) at a density of 7*10^3 cells in 100 μL/well and cultured for 24 h. Transcription of the receptors was induced by adding 0.25 μg/mL doxycycline (Sigma-Aldrich). […] One hour after loading, cells were washed with Tyrode's buffer and taken up in Tyrode's buffer. Stock solutions of test compounds were prepared in DMSO and diluted to the appropriate concentration in Tyrode's buffer, not exceeding a DMSO concentration of 1% (v/v).
(§1) Two methods of compound administration were applied: simultaneous and stepwise addition of potential antagonist and agonist. The first 17 s before compound addition were used for baseline determination. For the simultaneous method, agonist and potential antagonist were pre-mixed, administered after 17 s, and fluorescence was measured for in total 90 s. For the stepwise method, after 17 s, the potential antagonist was added, fluorescence was measured until 120 s, and after 120 s the agonist was added and measured for another 120 s, in total 240 s. […] Each experiment was performed at least in duplicate in separate experiments (as indicated for each figure).
Data processing was done as reported previously. In brief, SoftMax Pro 5.4 software (Molecular Devices Corporation) was used to plot the fluorescence signals. The fluorescence value (ΔF/F0), representing receptor activity, was calculated by subtracting the baseline fluorescence (F0) prior to loading from the maximum fluorescence (F) after compound addition, divided by the signal of the baseline in order to normalize background fluorescence. Dose-response curves were established as non-linear regression curves using Graph Pad Prism (version 4 for Windows, Graph Pad Software, San Diego, CA, USA). Half-maximal effective concentrations (EC50) and half-maximal inhibitory concentrations (IC50) were calculated. Error bars reflect the standard error of the mean (SEM). Statistical analysis was performed in Graph Pad Prism (one-way ANOVA at 5% risk level, followed by Bonferroni's post hoc test).
Inhibition was indicated when [drawing 1] . In case of indicated inhibition, flavanones were applied at different concentrations, in order to test for dose-dependent inhibition, at the EC80 concentration of the agonist. […] To investigate the specificity of flavanones for inhibition of hTAS2R39 and hTAS2R14, another bitter taste receptor, hTAS2R16 (not known to be activated by flavonoids), was used in inhibition experiments ( File S3 ) towards its agonist salicin.

hTAS2R16 = target: T3, hTAS2R16 (Homo sapiens, UniProt Q9NYV7); assay: Calcium assay of hTAS2R16 activation/inhibition (salicin as agonist); type: cell-based
T3 construct: expressed in transfected cells; host or cells: induced versus non-induced cells
T3 sequence (Q9NYV7 1-291): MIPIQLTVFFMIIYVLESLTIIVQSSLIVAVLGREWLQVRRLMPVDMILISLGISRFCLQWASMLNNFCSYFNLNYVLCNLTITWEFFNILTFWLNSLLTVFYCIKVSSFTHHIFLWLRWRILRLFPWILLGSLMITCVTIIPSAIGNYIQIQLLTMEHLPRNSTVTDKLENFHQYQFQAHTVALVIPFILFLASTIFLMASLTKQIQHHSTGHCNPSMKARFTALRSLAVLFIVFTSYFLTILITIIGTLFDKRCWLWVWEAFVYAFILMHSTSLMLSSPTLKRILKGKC
Description: Cells were seeded into poly-L-lysine-coated (Sigma-Aldrich) 96-well plates (black wall, clear bottom, Greiner bio-one, Frickenhausen, Germany) at a density of 7*10^3 cells in 100 μL/well and cultured for 24 h. Transcription of the receptors was induced by adding 0.25 μg/mL doxycycline (Sigma-Aldrich). Cells were induced for 24 h and then loaded with the calcium-sensitive fluorescent dye Fluo-4-AM (2.5 μM, Invitrogen), which was dissolved in Tyrode's buffer containing 5% (v/v) tetracycline-free FBS (Lonza). One hour after loading, cells were washed with Tyrode's buffer and taken up in Tyrode's buffer. Stock solutions of test compounds were prepared in DMSO and diluted to the appropriate concentration in Tyrode's buffer, not exceeding a DMSO concentration of 1% (v/v).
as §1, with “Receptor activation or inhibition was measured via intracellular Ca^2+ release in a FlexStation II 384 or FlexStation III (Molecular Devices Corporation, Sunnyvale, CA, USA) by measuring fluorescence (excitation 485 nm/emission 520 nm) for either 90 s or 240 s at 37°C. Two” for “Two”
Screening for hTAS2R39 inhibition by flavanones was performed with simultaneous application of agonist (200 μM ECG) and putative antagonist (250 μM flavanone). Inhibition was indicated when [drawing 1] . In case of indicated inhibition, flavanones were applied at different concentrations, in order to test for dose-dependent inhibition, at the EC80 concentration of the agonist. Another agonist of hTAS2R39, denatonium benzoate, was used in inhibition experiments at 1.7 mM (EC80). hTAS2R14 inhibition was tested with 640 μM ECG or 70 μM genistein as agonists, representing their respective EC80 concentrations. To investigate the specificity of flavanones for inhibition of hTAS2R39 and hTAS2R14, another bitter taste receptor, hTAS2R16 (not known to be activated by flavonoids), was used in inhibition experiments ( File S3 ) towards its agonist salicin.
SUPPORTING INFORMATION to the article “6-Methoxyflavanones as Bitter Taste Receptor Blockers for hTAS2R39” by Roland, WSU; Gouka, RJ; Gruppen, H; Driesse, M; van Buren, L; Smit, G; Vincken, J-P File S3 Investigation of identified inhibitors on hTAS2R16.
To investigate whether the hTAS2R39 inhibitors 6,3’-dimethoxyflavanone (3), 4’- fluoro-6-methoxyflavanone (6), and 6-methoxyflavanone (11) were able to inhibit a bitter receptor not known for flavonoid activation, hTAS2R16 was selected for inhibition experiments. Measuring dose-response curves of the hTAS2R16 agonist […]
Figure S3. Inhibition of response of 10 mM salicin (---) on hTAS2R16 (induced (●), non-induced (○)) by 4’-fluoro-6-methoxyflavanone (6) after simultaneous addition (A) and stepwise addition (B), by 6,3’-dimethoxyflavanone (3) after simultaneous addition (C) and stepwise addition (D), and by 6-methoxyflavanone (11) after simultaneous addition (E) and stepwise addition (F). […]

bitter taste = system: bitter taste; parameters: method as in PMID 16028996; details: in-vivo sensory masking, unknown mechanism; cited from earlier work
hTAS2R39 [2] = target: T1, hTAS2R39; parameters: method as in PMID 24117141; details: cited from earlier work
[3] = inhibition of hTAS2R14 response to 70 μM genistein
[4] = inhibition of hTAS2R14 response to 640 μM ECG
[5] = 0 μM 4′-fluoro-6-methoxyflavanone (6), stepwise addition, read-out: EC50 of agonist on hTAS2R39

COc1ccc2oc(-c3ccccc3)cc(=O)c2c1 [6-methoxyflavone, reference compound]
inhibition of hTAS2R39 activation (hTAS2R39 [1]; data not shown): unable to inhibit hTAS2R39 activation

COc1cccc(C2CC(=O)c3cc(OC)ccc3O2)c1 (stereo not drawn) [Compound 3, 6,3′-Dimethoxyflavanone]
IC50, Simultaneous (hTAS2R14; [3]): n.b.
Threshold, Simultaneous (hTAS2R14; [3]): n.b.
IC50, Simultaneous (hTAS2R14; [4]): n.b.
Threshold, Simultaneous (hTAS2R14; [4]): n.b.
IC50 (hTAS2R14; inhibition of hTAS2R14 response to 640 μM ECG, stepwise addition): ~250 µM
inhibition of salicin response on hTAS2R16 (hTAS2R16; 10 mM salicin, simultaneous and stepwise addition): no inhibition

O=C1C[C@@H](c2ccc(O)c(O)c2)Oc2cc(O)cc(O)c21 [Compound 4, Eriodictyol]
reduction of the bitter taste of different chemical classes of bitter molecules (bitter taste): up to 40%
activation of hTAS2R39 in a previous study (hTAS2R39 [2]): a activated hTAS2R39 in a previous study [16], but was selected for testing as antagonist due to ability to reduce bitter taste perception in sensory tests [9].

O=C1CC(c2ccccc2)Oc2ccccc21 (stereo not drawn) [Compound 5, Flavanone]
reduction of ECG response on hTAS2R39 (screening for inhibition) (hTAS2R39 [1]): did not show inhibitory activity
activation of hTAS2R39 in a previous study (hTAS2R39 [2]): b no activation of hTAS2R39 in a previous study [16].

O=C1CC(c2ccccc2)Oc2ccc(O)cc21 (stereo not drawn) [Compound 8, 6-Hydroxyflavanone]
reduction of ECG response on hTAS2R39 (screening for inhibition) (hTAS2R39 [1]): did not show inhibitory activity

O=C1CC(c2ccc(O)cc2)Oc2ccccc21 (stereo not drawn) [Compound 10, 4′-Hydroxyflavanone]
activation of hTAS2R39 in a previous study (hTAS2R39 [2]): b no activation of hTAS2R39 in a previous study [16].

COc1ccc2c(c1)OC(c1ccccc1)CC2=O (stereo not drawn) [Compound 12, 7-Methoxyflavanone]
reduction of ECG response on hTAS2R39 (screening for inhibition) (hTAS2R39 [1]): did not show inhibitory activity

COc1ccc(C2CC(=O)c3ccccc3O2)cc1 (stereo not drawn) [Compound 13, 4′-Methoxyflavanone]
reduction of ECG response on hTAS2R39 (screening for inhibition) (hTAS2R39 [1]): did not show inhibitory activity

CC[N+](CC)(CC(=O)Nc1c(C)cccc1C)Cc1ccccc1 [Denatonium benzoate, denatonium benzoate, reference compound]
EC50 (hTAS2R39 [1]; [5]): 659 ± 334 µM
EC80 on hTAS2R39 (hTAS2R39 [1]): 1700 µM
EC50 (hTAS2R39 [1]; agonist dose-response curve (data not shown), read-out: EC50 on hTAS2R39): 711 µM

O=C(O[C@@H]1Cc2c(O)cc(O)cc2O[C@@H]1c1ccc(O)c(O)c1)c1cc(O)c(O)c(O)c1 [ECG, Epicatechin gallate, reference compound]
EC50 (hTAS2R39 [1]; [5]): 128 ± 82 µM
EC80 on hTAS2R39 (hTAS2R39 [1]): 200 µM
EC80 on hTAS2R14 (hTAS2R14): 640 µM

O=c1c(-c2ccc(O)cc2)coc2cc(O)cc(O)c12 [genistein, reference compound]
EC80 on hTAS2R14 (hTAS2R14): 70 µM

COc1cc([C@@H]2CC(=O)c3c(O)cc([O-])cc3O2)ccc1O.[Na+] [homoeriodictyol Na-salt, reference compound]
reduction of the bitter taste of different chemical classes of bitter molecules (bitter taste): up to 40%

OCc1ccccc1O[C@@H]1O[C@H](CO)[C@@H](O)[C@H](O)[C@H]1O [salicin, reference compound]
EC80 on hTAS2R16 (hTAS2R16; agonist dose-response curve): 10000 µM

From paper PMC3983201, “6-Methoxyflavanones as Bitter Taste Receptor Blockers for hTAS2R39” (PLoS ONE, 2014)
